Target: Glutathione S-transferase 2 (Onchocerca volvulus)
Test: The compound was tested for it's inhibitory activity against Onchocerca volvulus Glutathione S-transferase 2

| IC50 | Structure (SMILES) |
| --- | --- |
| 31.9 µM | CC(C)C(=O)CC(SCC(NC(=O)CCC(N)C(=O)O)C(=O)NCC(=O)O)c1ccccc1 (centres undefined) [2-Amino-4-[1-(carboxymethyl-carbamoyl)-2-(4-methyl-3-oxo-1-phenyl-pentylsulfanyl)-ethylcarbamoyl]-butyric acid] |
| 19.1 µM | N[C@@H](CCC(=O)N[C@@H](CS[C@H](CC(=O)O)C(=O)O)C(=O)NCC(=O)O)C(=O)O [2-[2-(4-Amino-4-carboxy-butyrylamino)-2-(carboxymethyl-carbamoyl)-ethylsulfanyl]-succinic acid] |
| 220 µM | NC(CCC(=O)NC(CSC1CCCC(=O)C1)C(=O)NCC(=O)O)C(=O)O (centres undefined) [2-Amino-4-[1-(carboxymethyl-carbamoyl)-2-(3-oxo-cyclohexylsulfanyl)-ethylcarbamoyl]-butyric acid] |
| 48 µM | CCCCOC(=O)CC(SCC(NC(=O)CCC(N)C(=O)O)C(=O)NCC(=O)O)C(=O)O (centres undefined) [2-[2-(4-Amino-4-carboxy-butyrylamino)-2-(carboxymethyl-carbamoyl)-ethylsulfanyl]-succinic acid 4-butyl ester] |
